According to article PMC6582486, “Stapled EGFR peptide reduces inflammatory breast cancer and inhibits additional HER-driven models of cancer” (Journal of Translational Medicine, 2019):
Marks after values point to notes of the source that are not given here. Where a SMILES comes first, the peptide text is derived from it. Bridges are numbered along the chain shown (N, C = ends). [ ]: non-standard residue; d: D form. R8 = C=CCCCCCC[C@@](C)(N)C(=O)O; S5 = C=CCCC[C@](C)(N)C(=O)O

Tests used:
[1] = 28-day toxicity study: clinical chemistry; format: in vivo, CD-1 mice; conditions: day 29, mean ± SD
Method: Toxicology was performed by IITRI. The study was conducted in compliance with the US Food and Drug Administration (FDA) good laboratory practice (GLP) Regulations (Code of Federal Regulations Title 21 Part 58) to evaluate the toxicokinetics, local tolerability, immunogenicity, and potential toxicity of SAH5-EJ1 following three times per week intravenous (IV) dosing for 28 days in mice. Male and female CD-1 IGS [Crl:CD1(ICR)] mice (135 per sex) were received from Wilmington, MA-based Charles River Laboratories, Inc.’s Kingston facility (Stone Ridge, NY).

[2] = system: grade 3 invasive ductal breast carcinoma PDX TM01278; test: Breast cancer PDX mouse model TM01278; format: in vivo
Description: The following PDX mouse models were generated by Jackson Labs (Sacramento, CA): Breast TM01278; Grade 3 invasive ductal carcinoma, primary malignancy; EGFR inactivating R521K mutation; ERBB3 G1288A mutation in kinase domain with unknown effects on activity; increased EGFR/ERBB2/ERBB3. Lung TM00784; Grade 3 lung adenocarcinoma, primary malignancy; EGFR activating L858R mutation; increased EGFR, decreased ERBB2/ERBB3/ERBB4. All animals were maintained as outlined by University of Arizona Institutional Animal Care and Use Committee (IACUC) by the Experimental Mouse Shared Resource (EMSR).
Fig. 4 SAH5-EJ1 effectively treats models of basal and inflammatory breast cancers while increasing survival. a Changes in tumor burden in breast cancer PDX mouse model TM01278 with various concentrations of intravenous SAH5-EJ1. Control represents water as a vehicle control. *p < 0.05 (Control vs 1 µg/g); **p < 0.01 (Control vs 1 µg/g and vs 10 µg/g). N = 6 for each condition. b Kaplan–Meier curve of breast PDX mouse model treated with control (blue) or either 1 or 10 µg/g SAH5-EJ1 (green and red, respectively) (red asterisks indicate time point at which mice could no longer receive injections due to site toxicity). Data shown represent mean. N = 6 for all groups. c Cell viability assay performed in SUM149 cells over 3 days comparing treatment with Sapitinib (blue) to SAH5-EJ1 (red) and SAH5-CP (grey). […]

**Q.** What does the source list for `CC[C@H](C)[C@H](NC(=O)[C@H](Cc1c[nH]cn1)NC(=O)[C@H](CCCNC(=N)N)NC(=O)[C@H](CCCNC(=N)N)NC(=O)[C@H](CCCNC(=N)N)NC(=O)[C@H](CCSC)NC(=O)[C@H](Cc1ccccc1)NC(=O)[C@H](C)NC(=O)[C@H](CCCNC(=N)N)NC(=O)[C@H](C)NC(=O)[C@H](CCC(N)=O)NC(=O)[C@H](CCCNC(=N)N)NC(=O)[C@H](C)NC(=O)[C@H](C)NC(=O)[C@H](C)NC(=O)[C@H](CCCNC(=N)N)NC(=O)[C@H](C)NC(=O)[C@@H](N)Cc1ccc(O)cc1)C(=O)N[C@H](C(=O)N[C@@H](CCCNC(=N)N)C(=O)N[C@@H](CCCCN)C(=O)N[C@@H](CCCNC(=N)N)C(=O)N[C@]1(C)CCCCCCC=CCCC[C@@](C)(C(=O)N[C@@H](CCCNC(=N)N)C(=O)N[C@@H](CCC(=O)O)C(N)=O)NC(=O)[C@H](CCC(N)=O)NC(=O)[C@H](CC(C)C)NC(=O)[C@H](CC(C)C)NC(=O)[C@H](CCCNC(=N)N)NC(=O)[C@H](CCCNC(=N)N)NC(=O)[C@H](CC(C)C)NC1=O)C(C)C` [SAH5-EJ1] (H-YARAAARQARAFMRRRHIVRKR[R8]LRRLLQ[S5]RE-NH2; staple 23-30)?
**A.** ALP ([1]; female, 5 mg/kg, N = 5): 88 ± 33.2 IU/L; ALT ([1]; female, 5 mg/kg, N = 5): 79 ± 35.0 IU/L; AST ([1]; female, 5 mg/kg, N = 5): 80 ± 8.3^a IU/L; BUN ([1]; female, 5 mg/kg, N = 5): 19 ± 2.2 mg/dL; TBIL ([1]; female, 5 mg/kg, N = 5): 0.2 ± 0.05 mg/dL; ALP ([1]; female, 10 mg/kg, N = 5): 70 ± 48.4 IU/L; ALT ([1]; female, 10 mg/kg, N = 5): 61 ± 18.5 IU/L; AST ([1]; female, 10 mg/kg, N = 5): 83 ± 19.0 IU/L; BUN ([1]; female, 10 mg/kg, N = 5): 19 ± 3.0 mg/dL; TBIL ([1]; female, 10 mg/kg, N = 5): 0.1 ± 0.05 mg/dL; ALP ([1]; female, 15 mg/kg, N = 4): 62 ± 18.4 IU/L; ALT ([1]; female, 15 mg/kg, N = 4): 90 ± 27.2 IU/L; AST ([1]; female, 15 mg/kg, N = 4): 93 ± 12.5 IU/L; BUN ([1]; female, 15 mg/kg, N = 4): 22 ± 2.5 mg/dL; TBIL ([1]; female, 15 mg/kg, N = 4): 0.1 ± 0^b mg/dL; ALP ([1]; male, 5 mg/kg, N = 4): 68 ± 13.8 IU/L; ALT ([1]; male, 5 mg/kg, N = 4): 124 ± 71.5 IU/L; AST ([1]; male, 5 mg/kg, N = 4): 92 ± 28.6 IU/L; BUN ([1]; male, 5 mg/kg, N = 4): 26 ± 2.2 mg/dL; TBIL ([1]; male, 5 mg/kg, N = 4): 0.2 ± 0.05 mg/dL; ALP ([1]; male, 10 mg/kg, N = 5): 73 ± 19.7 IU/L; ALT ([1]; male, 10 mg/kg, N = 5): 96 ± 28.3 IU/L; AST ([1]; male, 10 mg/kg, N = 5): 83 ± 23.6 IU/L; BUN ([1]; male, 10 mg/kg, N = 5): 31 ± 7.3 mg/dL; TBIL ([1]; male, 10 mg/kg, N = 5): 0.2 ± 0.04 mg/dL; ALP ([1]; male, 15 mg/kg, N = 4): 58 ± 10.5 IU/L; ALT ([1]; male, 15 mg/kg, N = 4): 67 ± 32.3 IU/L; AST ([1]; male, 15 mg/kg, N = 4): 63 ± 13.5 IU/L; BUN ([1]; male, 15 mg/kg, N = 4): 23 ± 2.9 mg/dL; TBIL ([1]; male, 15 mg/kg, N = 4): 0.2 ± 0.05 mg/dL; increase in survival ([2]; 1 µg/g IV vs control, N = 6): 2.5 fold; time on study at which all remaining mice were sacrificed due to toxicity at the injection site ([2]; 10 µg/g IV): 41 days
